Assay results from patent US5250518A, “O-methyl derivatives of azithromycin A” (priority 1990, dated 1993).
Converted amounts (≈) assume the structure as drawn. Like-named read-outs stand apart in the source and are kept apart here.

Legend:
[1] = acidic medium; cited from earlier work
[2] = tested on: Staphylococcus aureus 10099; test: Antibacterial in vitro activity against clinical isolates, tube dilution method (Table 2); type: cell-based; conditions: clinical isolate, Brain hearth bouillon, 24 hours, 37° C.; for MBC: read-out: MBC (Minimal Bactericidal Concentation); for MIC: read-out: MIC (Minimal Inhibitory Concentration)
Description: (§1) O-methyl derivatives of azithromycin A of the formulae (Ii)-(Il) and their pharmaceutically acceptable addition salts have a potent antimicrobial activity. The preliminary antibacterial in vitro activity of 6-O-methyl-azithromycin A (Ii) was determined on a series of gram-positiveand gram-negative test bacteria and clinical isolates in comparison with erythromycin A. The assessment was performed by the "tube dilution" method. In the investigation there were used 24-hours cultures in "brain hearth bouillon" of standard strains and freshly isolated strains from a clinical sample.
(§2) Substrate: Brain hearth bouillon
(§3) Incubation: 24 hours, 37° C.
(§4) MIC: Minimal Inhibitory Concentration (μg/mL)
(§5) MBC: Minimal Bactericidal Concentation (μg/mL)

[3] = tested on: Streptococcus pneumoniae 4050; test: as above; type: cell-based; conditions: clinical isolate, Brain hearth bouillon, 24 hours, 37° C.; for MBC: read-out: MBC (Minimal Bactericidal Concentation); for MIC: read-out: MIC (Minimal Inhibitory Concentration)
Description: as §1, §2, §3, §4, §5

[4] = tested on: Streptococcus faecalis 10390; test: as above; type: cell-based; conditions: Enterococcus faecalis, clinical isolate, Brain hearth bouillon, 24 hours, 37° C.; for MBC: read-out: MBC (Minimal Bactericidal Concentation); for MIC: read-out: MIC (Minimal Inhibitory Concentration)
Description: as §1, §2, §3, §4, §5

[5] = tested on: Haemophylus influenzae 4028; test: as above; type: cell-based; conditions: clinical isolate, Brain hearth bouillon, 24 hours, 37° C.; for MBC: read-out: MBC (Minimal Bactericidal Concentation); for MIC: read-out: MIC (Minimal Inhibitory Concentration)
Description: as §1, §2, §3, §4, §5

[6] = tested on: Staphylococcus aureus 10097; test: as above; type: cell-based; conditions: clinical isolate, Brain hearth bouillon, 24 hours, 37° C.; for MBC: read-out: MBC (Minimal Bactericidal Concentation); for MIC: read-out: MIC (Minimal Inhibitory Concentration)
Description: as §1, §2, §3, §4, §5

[7] = tested on: Staphylococcus saprophyticus 3947; test: as above; type: cell-based; conditions: clinical isolate, Brain hearth bouillon, 24 hours, 37° C.; for MBC: read-out: MBC (Minimal Bactericidal Concentation); for MIC: read-out: MIC (Minimal Inhibitory Concentration)
Description: as §1, §2, §3, §4, §5

[8] = tested on: Sarcina lutea ATCC-9341; test: Antibacterial in vitro activity, tube dilution method (Table 1); type: cell-based; conditions: Micrococcus luteus, ATCC9341, Brain hearth bouillon, 24 hours, 37° C.; for MBC: read-out: MBC (Minimal Bactericidal Concentration); for MIC: read-out: MIC (Minimal Inhibitory Concentration)
Description: as §1, with “The” for “O-methyl derivatives of azithromycin A of the formulae (Ii)-(Il) and their pharmaceutically acceptable addition salts have a potent antimicrobial activity. The”

[9] = tested on: Escherichia coli ATCC 10536; test: as above; type: cell-based; conditions: ATCC10536, Brain hearth bouillon, 24 hours, 37° C.; for MBC: read-out: MBC (Minimal Bactericidal Concentration); for MIC: read-out: MIC (Minimal Inhibitory Concentration)
Description: as §1, with “The” for “O-methyl derivatives of azithromycin A of the formulae (Ii)-(Il) and their pharmaceutically acceptable addition salts have a potent antimicrobial activity. The”

[10] = tested on: Staphilococcus aureus ATCC 6538-P; test: as above; type: cell-based; conditions: for MBC: read-out: MBC (Minimal Bactericidal Concentration); for MIC: read-out: MIC (Minimal Inhibitory Concentration)
Description: as §1, §2, §3, §4
(§6) MBC: Minimal Bactericidal Concentration (μg/mL)

[11] = tested on: Pseudomonas aeruginosa NCTC-10490; test: as above; type: cell-based; conditions: for MBC: read-out: MBC (Minimal Bactericidal Concentration); for MIC: read-out: MIC (Minimal Inhibitory Concentration)
Description: as §1, §2, §3, §4, §6

[12] = tested on: Klebsiella pneumoniae NCTC-10499; test: as above; type: cell-based; conditions: for MBC: read-out: MBC (Minimal Bactericidal Concentration); for MIC: read-out: MIC (Minimal Inhibitory Concentration)
Description: as §1, §2, §3, §4, §6

[13] = tested on: Streptococcus faecalis ATCC-8043; test: as above; type: cell-based; conditions: Enterococcus faecalis; for MBC: read-out: MBC (Minimal Bactericidal Concentration); for MIC: read-out: MIC (Minimal Inhibitory Concentration)
Description: as §1, §2, §3, §4, §6

[14] = tested on: gram-positive and gram-negative test bacteria and clinical isolates; test: Preliminary antibacterial in vitro activity, tube dilution method (Tables 1 and 2, summary); type: cell-based; conditions: versus erythromycin A
Description: as §1

[15] = tested on: Bacillus subtilis NCTC 8241; test: Antibacterial in vitro activity in comparison with azithromycin (Table 3); type: cell-based
Text: (§7) In Table 3 there are represented in vitro tests of 6-O-methyl- (Ii), 6,11-di-O-methyl- (Ij), 11-O-methyl- (Ik) and 6,11,4"-tri-O-methyl-azithromycin A (II) in comparison with azithromycin.

[16] = tested on: Corynebacterium xerosis NCTC 9755; test: as above; type: cell-based; conditions: NCTC9755, Brain hearth Bouillon, 24-48 hours, 37° C., inoculum 10^-5 -10^-6 cfu/mL
Text: as §7

[17] = tested on: ATCC 8043; test: as above; type: cell-based; conditions: Staphylococcus faecalis, ATCC8043; Brain hearth Bouillon, 24-48 hours, 37° C., inoculum 10^-5 -10^-6 cfu/mL
Text: as §7

[18] = tested on: ATCC 10240; test: as above; type: cell-based; conditions: Brain hearth Bouillon, 24-48 hours, 37° C., inoculum 10^-5 -10^-6 cfu/mL
Text: as §7

[19] = tested on: Pseudomonas aeruginosa NCTC 10490; test: as above; type: cell-based; conditions: NCTC10490, Brain hearth Bouillon, 24-48 hours, 37° C., inoculum 10^-5 -10^-6 cfu/mL
Text: as §7

[20] = tested on: Sarcina lutea ATCC 9341; test: as above; type: cell-based
Text: as §7

[21] = tested on: Bacillus cereus NCTC 10320; test: as above; type: cell-based; conditions: NCTC10320, Brain hearth Bouillon, 24-48 hours, 37° C., inoculum 10^-5 -10^-6 cfu/mL
Text: as §7

[22] = tested on: Bacillus pumilus NCTC 8241; test: as above; type: cell-based; conditions: NCTC8241, Brain hearth Bouillon, 24-48 hours, 37° C., inoculum 10^-5 -10^-6 cfu/mL
Text: as §7

[23] = tested on: Staphylococcus epidermidis ATCC 12228; test: as above; type: cell-based; conditions: ATCC12228, Brain hearth Bouillon, 24-48 hours, 37° C., inoculum 10^-5 -10^-6 cfu/mL
Text: as §7

[24] = tested on: Escherichia coli ATCC 10536; test: as above; type: cell-based; conditions: ATCC10536, Brain hearth Bouillon, 24-48 hours, 37° C., inoculum 10^-5 -10^-6 cfu/mL
Text: as §7

[25] = Biological activity (1 mg contains μg of azithromycin); conditions: per 1 mg of (Ii)
[26] = tested on: ATCC 6538P; test: Antibacterial in vitro activity in comparison with azithromycin (Table 3); type: cell-based, Staphilococcus aureus
Text: as §7

[27] = Brain hearth bouillon, 24 hours, 37° C.
[28] = NCTC10490, Brain hearth bouillon, 24 hours, 37° C.
[29] = NCTC10499, Brain hearth bouillon, 24 hours, 37° C.
[30] = ATCC8043, Brain hearth bouillon, 24 hours, 37° C.

In the case of CC[C@H]1OC(=O)[C@H](C)[C@@H](O[C@H]2C[C@@](C)(OC)[C@@H](O)[C@H](C)O2)[C@H](C)[C@@H](O[C@@H]2O[C@H](C)C[C@H](N(C)C)[C@H]2O)[C@](C)(O)C[C@@H](C)C(=O)[C@H](C)[C@@H](O)[C@]1(C)O [Erythromycin A, reference compound], the “behaviour in acidic medium” value [1] is given as “easily converted into anhydroerythromycin”, the MBC [2] is given as 0.2 µg/mL (≈ 0.273 µM) and the MIC [2] is given as 0.1 µg/mL (≈ 0.136 µM). It also gave an MBC [3] of 0.4 µg/mL (≈ 0.545 µM), an MIC [3] of 0.1 µg/mL (≈ 0.136 µM) and an MBC [4] of 3.1 µg/mL (≈ 4.22 µM). For the same molecule, the MIC [4] was 0.8 µg/mL (≈ 1.09 µM), the MBC [5] was 0.2 µg/mL (≈ 0.273 µM) and the MIC [5] was 0.05 µg/mL (≈ 0.0681 µM). It also gave an MBC [6] of 0.4 µg/mL (≈ 0.545 µM), an MIC [6] of 0.1 µg/mL (≈ 0.136 µM) and an MBC [7] of 0.8 µg/mL (≈ 1.09 µM). For the same molecule, the MIC [7] was 0.4 µg/mL (≈ 0.545 µM), the MBC [8] was 0.4 µg/mL (≈ 0.545 µM) and the MIC [8] was 0.2 µg/mL (≈ 0.273 µM). The MBC [9] was greater than 50 µg/mL, the MIC [9] was 50 µg/mL (≈ 68.1 µM) and the MBC ([10]; 24 h) was 0.8 µg/mL (≈ 1.09 µM). For the same molecule, the MIC ([10]; 24 h) was 0.2 µg/mL (≈ 0.273 µM), the MBC ([11]; NCTC10490, 24 h) was greater than 50 µg/mL and the MIC ([11]; NCTC10490, 24 h) was greater than 50 µg/mL. For the same molecule, the MBC ([12]; NCTC10499, 24 h) was greater than 50 µg/mL, the MIC ([12]; NCTC10499, 24 h) was greater than 50 µg/mL and the MBC ([13]; ATCC8043, 24 h) was 0.8 µg/mL (≈ 1.09 µM). It also gave an MIC ([13]; ATCC8043, 24 h) of 0.2 µg/mL (≈ 0.273 µM).
For CC[C@H]1OC(=O)[C@H](C)[C@@H](O[C@H]2C[C@@](C)(OC)[C@@H](O)[C@H](C)O2)[C@H](C)[C@@H](O[C@@H]2O[C@H](C)C[C@H](N(C)C)[C@H]2O)[C@](C)(OC)C[C@@H](C)CN(C)[C@H](C)[C@@H](O)[C@]1(C)O [Ii, 6-O-Methyl-azithromycin A], the “activity on the investigated strains in comparison with erythromycin A, in words” value [14] was “somewhat improved activity”, the “activity with respect to azithromycin (from MIC)” value (“activity … (from MIC)” below) ([15]; Bacillus subtilis NCTC 8241, versus azithromycin) was “twice as active” and the MIC ([15]; Bacillus subtilis, NCTC8241, Brain hearth Bouillon, 24-48 hours, 37° C., inoculum 10^-5 -10^-6 cfu/mL) was 0.2 µg/mL (≈ 0.262 µM). For the same molecule, the MIC [16] was 12.5 µg/mL (≈ 16.4 µM), the MIC [17] was 0.05 µg/mL (≈ 0.0655 µM) and the MIC [18] was 0.79 µg/mL (≈ 1.04 µM). The MIC [19] was 100 µg/mL (≈ 131 µM), the MIC ([20]; Micrococcus luteus, ATCC9341, Brain hearth Bouillon, 24-48 hours, 37° C., inoculum 10^-5 -10^-6 cfu/mL) was 0.0125 µg/mL (≈ 0.0164 µM) and the “activity … (from MIC)” value ([20]; Sarcina lutea ATCC 9341, versus azithromycin) was “twice as active”. The MIC [21] was 0.78 µg/mL (≈ 1.02 µM), the MIC [22] was 0.2 µg/mL (≈ 0.262 µM) and the MIC [23] was 0.1 µg/mL (≈ 0.131 µM). The MIC [24] was 3.12 µg/mL (≈ 4.1 µM), the “Biological activity: 1 mg contains azithromycin” value [25] was 754 μg and the MIC ([26]; Brain hearth Bouillon, 24-48 hours, 37° C., inoculum 10^-5 -10^-6 cfu/mL, read-out: MIC) was 0.39 µg/mL (≈ 0.511 µM). For the same molecule, the “activity … (from MIC)” value ([26]; printed as Micrococcus flavus ATCC 6538 P, versus azithromycin) was “four times as active”, the MBC [2] was 0.1 µg/mL (≈ 0.131 µM) and the MIC [2] was 0.05 µg/mL (≈ 0.0655 µM). For the same molecule, the MBC [3] was 0.1 µg/mL (≈ 0.131 µM), the MIC [3] was 0.025 µg/mL (≈ 0.0328 µM) and the MBC [4] was 3.1 µg/mL (≈ 4.06 µM). For the same molecule, the MIC [4] was 0.8 µg/mL (≈ 1.05 µM), the MBC [5] was 0.2 µg/mL (≈ 0.262 µM) and the MIC [5] was 0.05 µg/mL (≈ 0.0655 µM). For the same molecule, the MBC [6] was 0.4 µg/mL (≈ 0.524 µM), the MIC [6] was 0.05 µg/mL (≈ 0.0655 µM) and the MBC [7] was 0.8 µg/mL (≈ 1.05 µM). It also gave an MIC [7] of 0.4 µg/mL (≈ 0.524 µM), an MBC [8] of 0.2 µg/mL (≈ 0.262 µM) and an MIC [8] of 0.1 µg/mL (≈ 0.131 µM). The MBC [9] was 3.2 µg/mL (≈ 4.19 µM), the MIC [9] was 1.6 µg/mL (≈ 2.1 µM) and the MBC [10, 27] was 0.4 µg/mL (≈ 0.524 µM). For the same molecule, the MIC [10, 27] was 0.2 µg/mL (≈ 0.262 µM), the MBC [11, 28] was greater than 50 µg/mL and the MIC [11, 28] was greater than 50 µg/mL. For the same molecule, the MBC [12, 29] was 50 µg/mL (≈ 65.5 µM), the MIC [12, 29] was 12.5 µg/mL (≈ 16.4 µM) and the MBC [13, 30] was 0.4 µg/mL (≈ 0.524 µM). It also gave an MIC [13, 30] of 0.2 µg/mL (≈ 0.262 µM).
